The source of these data is ChEMBL document CHEMBL5357056, “Precursor-Directed Biosynthesis of Antialgal Fluorinated Bacillamide Derivatives in Bacillus atrophaeus” (J Nat Prod, 2024).

The test system of one test is Karenia brevis. Description: Anti-phytoplankton activity against Karenia brevis assessed as change in chlorophyll a level measured after 72 hrs by fluorescence based analysis. It is filed as functional, organism-based.
Test [1] can be described thus: Anti-phytoplankton activity against Skeletonema grethae assessed as reduction in chlorophyll a level measured after 72 hrs by fluorescence based analysis. The class given is functional, organism-based.

One may read the IC50 as the concentration at which inhibition is half-maximal.

`CC(=O)c1nc(C(=O)NCCc2c[nH]c3ccccc23)cs1` [BACILLAMIDE A]: the half-maximal inhibitory concentration (IC50) (with Karenia brevis; in test [1]) was over 200 µM throughout.
For the molecule `CC(=O)c1nc(C(=O)NCCc2c[nH]c3ccc(F)cc23)cs1`, the IC50 in the test on Karenia brevis is 186 µM; in test [1] it was over 200 µM.
Consider `CC(=O)N[C@H](C)c1nc(C(=O)NCCc2c[nH]c3cc(F)ccc23)cs1`, for which the IC50 with Karenia brevis was 28.7 µM; in test [1], over 200 µM.
Turning to `CC(=O)NCCc1c[nH]c2cccc(F)c12`, the half-inhibitory concentration (IC50) (in the test with Karenia brevis; in test [1]) was over 200 µM in each case.
For the molecule `CC(=O)N[C@H](C)c1nc(C(=O)NCCc2c[nH]c3ccccc23)cs1` [BACILLAMIDE C], the IC50 (with Karenia brevis; in test [1]) was over 200 µM in each case.
For `CC(=O)N[C@H](C)c1nc(C(=O)NCCc2c[nH]c3ccc(F)cc23)cs1`, the half-inhibitory concentration (IC50) (with Karenia brevis; in test [1]) was over 200 µM in each case.
On to `CC(=O)NCCc1c[nH]c2ccccc12`, for which the IC50 (in the test with Karenia brevis; in test [1]) was over 200 µM each time.
`CC(=O)c1nc(C(=O)NCCc2c[nH]c3cc(F)ccc23)cs1`: the values for the IC50 (in the test on Karenia brevis; in test [1]) were 107 µM and over 200 µM, respectively.
Consider `CC(=O)c1nc(C(=O)NCCc2c[nH]c3cccc(F)c23)cs1`, for which the IC50 (in the test on Karenia brevis; in test [1]) was over 200 µM throughout.
Regarding `N#Cc1c(-c2ccc(Cl)cc2)[nH]c(C(F)(F)F)c1Br`, the IC50 in the test with Karenia brevis worked out at 1.35 µM; in test [1], 13.1 µM.
As for `CC(=O)N[C@H](C)c1nc(C(=O)NCCc2c[nH]c3cccc(F)c23)cs1`, the IC50 (in the test on Karenia brevis; in test [1]) was over 200 µM each time.
Consider `C[C@@H]1C[C@@H]([C@H](O)CC2CC(=O)NC(=O)C2)C(=O)[C@@H](C)C1` [CYCLOHEXIMIDE], for which the IC50 with Karenia brevis is 0.55 µM; in test [1], 0.5 µM.
